Data as given in ChEMBL document CHEMBL4265883, “Nav1.7 inhibitors for the treatment of chronic pain” (Bioorg Med Chem Lett, 2018).

How the values were obtained:
[1] = target: Sodium channel protein type 9 subunit alpha (Homo sapiens, UniProt Q15858); experiment: Inhibition of human Nav1.7 expressed in HEK293 cells by electrophysiology assay; format: cell-based
[2] = organism: Homo sapiens; experiment: Selectivity ratio of IC50 for human Nav1.5 to IC50 for human Nav1.7

Sodium channel protein type 9 subunit alpha, sequence (Q15858 whole entry): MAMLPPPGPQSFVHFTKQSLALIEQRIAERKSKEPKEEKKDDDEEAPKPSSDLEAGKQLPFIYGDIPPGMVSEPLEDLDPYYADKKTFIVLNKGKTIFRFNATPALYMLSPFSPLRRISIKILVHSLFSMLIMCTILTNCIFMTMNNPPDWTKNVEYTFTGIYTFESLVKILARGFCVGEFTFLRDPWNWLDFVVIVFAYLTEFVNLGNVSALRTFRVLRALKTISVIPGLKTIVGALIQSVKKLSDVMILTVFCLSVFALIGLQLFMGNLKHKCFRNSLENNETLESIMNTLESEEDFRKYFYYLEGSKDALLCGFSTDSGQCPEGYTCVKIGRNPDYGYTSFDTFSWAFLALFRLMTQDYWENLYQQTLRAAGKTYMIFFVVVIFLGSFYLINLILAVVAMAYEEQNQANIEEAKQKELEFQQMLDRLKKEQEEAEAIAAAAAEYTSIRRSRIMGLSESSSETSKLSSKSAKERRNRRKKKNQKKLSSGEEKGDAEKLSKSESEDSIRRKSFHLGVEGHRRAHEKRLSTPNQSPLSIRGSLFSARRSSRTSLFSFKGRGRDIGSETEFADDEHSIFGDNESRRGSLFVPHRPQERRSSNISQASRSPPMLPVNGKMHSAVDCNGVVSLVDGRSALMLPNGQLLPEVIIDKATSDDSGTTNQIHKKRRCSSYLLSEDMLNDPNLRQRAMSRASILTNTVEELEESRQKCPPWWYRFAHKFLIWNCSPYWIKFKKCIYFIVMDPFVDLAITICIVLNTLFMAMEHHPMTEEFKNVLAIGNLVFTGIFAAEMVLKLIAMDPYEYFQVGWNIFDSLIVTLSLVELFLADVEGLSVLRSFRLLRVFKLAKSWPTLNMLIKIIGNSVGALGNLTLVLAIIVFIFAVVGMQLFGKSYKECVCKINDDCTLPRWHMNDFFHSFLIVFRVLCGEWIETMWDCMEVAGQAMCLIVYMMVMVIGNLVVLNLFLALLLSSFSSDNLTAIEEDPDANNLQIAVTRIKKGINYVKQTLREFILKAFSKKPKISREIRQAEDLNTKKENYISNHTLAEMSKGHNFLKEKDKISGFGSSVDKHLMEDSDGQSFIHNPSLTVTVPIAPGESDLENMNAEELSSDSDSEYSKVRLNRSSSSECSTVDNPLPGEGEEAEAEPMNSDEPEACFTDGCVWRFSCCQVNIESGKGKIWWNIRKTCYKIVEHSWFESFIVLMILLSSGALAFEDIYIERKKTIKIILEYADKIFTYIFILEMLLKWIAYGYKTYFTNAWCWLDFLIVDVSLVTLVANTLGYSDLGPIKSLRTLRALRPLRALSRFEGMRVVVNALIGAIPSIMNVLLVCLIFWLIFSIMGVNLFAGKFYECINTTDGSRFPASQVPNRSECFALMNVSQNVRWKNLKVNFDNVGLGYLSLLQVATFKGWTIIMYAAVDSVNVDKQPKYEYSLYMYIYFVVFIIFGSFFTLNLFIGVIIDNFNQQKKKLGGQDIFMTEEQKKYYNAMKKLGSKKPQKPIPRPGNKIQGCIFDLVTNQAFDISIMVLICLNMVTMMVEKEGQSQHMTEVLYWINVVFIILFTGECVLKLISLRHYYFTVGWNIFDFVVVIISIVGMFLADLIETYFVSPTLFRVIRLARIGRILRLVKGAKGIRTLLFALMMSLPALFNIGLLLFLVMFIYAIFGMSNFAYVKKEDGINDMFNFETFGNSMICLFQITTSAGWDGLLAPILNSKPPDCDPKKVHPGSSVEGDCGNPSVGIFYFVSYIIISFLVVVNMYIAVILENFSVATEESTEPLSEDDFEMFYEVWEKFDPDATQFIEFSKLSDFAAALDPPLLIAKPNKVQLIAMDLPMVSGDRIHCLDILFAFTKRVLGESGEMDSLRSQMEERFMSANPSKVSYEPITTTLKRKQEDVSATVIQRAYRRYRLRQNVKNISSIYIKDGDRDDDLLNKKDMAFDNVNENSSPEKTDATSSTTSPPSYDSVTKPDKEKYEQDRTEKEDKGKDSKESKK

In the case of `Cc1nn(-c2cnc(OCC(C)C)c(Cl)c2)c2ccc(C(=O)NS(C)(=O)=O)cc12` [PF-05241328], the IC50 [1] is reported as 31 nM.
`O=C(O)[C@@H]1C[C@@H](F)CN1C(=O)c1cc(C2CC2)c(OCC2CCN(Cc3c(Cl)cccc3Cl)CC2)cc1F` showed a Ratio IC50 [2] greater than 150.
Work on `CN[C@H](CNc1cc(F)c(S(=O)(=O)Nc2nccs2)cc1Cl)Cc1cccc(Cl)c1` yielded a Ratio IC50 [2] greater than 1380 and an IC50 [1] of 15 nM.
